Counter-ions that a name gives are not always drawn. Like-named read-outs stand apart in the source and are kept apart here.
Tests used:
[1] = Oral bioavailability and plasma kinetics in mice (serum concentration); format: in vivo, Balb/c mice; details: mouse; for concentration at 20 min / concentration at 40 min / concentration at 60 min: female, Balb/c, serum, po; for concentration at 20 min: sample at 20 minutes; for concentration at 40 min: sample at 40 minutes; for concentration at 60 min: sample at 60 minutes; for c in the serum 1st analysis / c in the serum 2nd analysis: 10 mg/kg i.v.
urokinase = target: T1, urokinase (Homo sapiens, UniProt P00749); assay: In vitro inhibition of urokinase by WX-508 (Example 15); format: biochemical
T1 construct: purchased Calbiochem-Novabiochem GmbH, Bad Soden, Germany
Procedure: (§1) In order to determine the uPA inhibitory activity, 200 μl Tris-buffer (0.05 mol/l containing the inhibitor, 0.154 mol/l NaCl, pH 8.0), 25 μl substrate (Pefachrome uPA or BZ-O-Ala-Gly-Arg-pNA in H2O; Pentapharm Ltd., Basle, Switzerland) and 50 μl urokinase (Calbiochem-Novabiochem GmbH, Bad Soden, Germany) or another appropriate protease are incubated at 30° C. After ca. 30 minutes and 30 cycles the absorption is determined at 405 nm by means of a microplate reader (Mediators PHL, Aureon Biosystems, Vienna, Austria). The Ki values were determined according to Dixon by linear regression using a computer program.

PK = PK (Homo sapiens, UniProt P03952); assay: In vitro inhibition of PK (Ki); format: biochemical; details: summary table
Chain of PK (P03952 20-638): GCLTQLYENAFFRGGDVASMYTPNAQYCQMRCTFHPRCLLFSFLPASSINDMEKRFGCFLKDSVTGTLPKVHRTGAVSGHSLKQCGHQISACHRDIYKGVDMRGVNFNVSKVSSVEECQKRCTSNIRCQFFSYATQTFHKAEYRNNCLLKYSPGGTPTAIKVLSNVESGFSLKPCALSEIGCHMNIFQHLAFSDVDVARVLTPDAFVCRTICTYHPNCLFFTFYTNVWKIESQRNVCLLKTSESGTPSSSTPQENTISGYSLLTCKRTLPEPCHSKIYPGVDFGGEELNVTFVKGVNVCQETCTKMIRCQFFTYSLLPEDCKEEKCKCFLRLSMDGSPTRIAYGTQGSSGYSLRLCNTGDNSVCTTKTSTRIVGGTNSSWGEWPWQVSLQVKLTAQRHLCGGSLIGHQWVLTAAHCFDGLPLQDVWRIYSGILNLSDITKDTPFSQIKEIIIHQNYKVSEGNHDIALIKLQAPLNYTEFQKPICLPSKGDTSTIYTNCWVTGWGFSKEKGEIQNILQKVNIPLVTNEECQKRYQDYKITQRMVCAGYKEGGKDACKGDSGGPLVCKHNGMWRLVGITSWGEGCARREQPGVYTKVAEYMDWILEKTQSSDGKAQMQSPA
In short: (§2)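 Chromogenic read-out in 0.05 mol/l Tris, 0.154 mol/l NaCl, pH 8.0, with inhibitor, substrate (Pefachrome uPA, Pefachrome PL or Pefabloc TH) and protease, incubated 10 min at 30 °C. Absorbance at 405 nm was read after ca. 30 min (30 cycles). Ki was derived by Dixon linear regression.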

Caco-2 cell monolayers = assay: Caco-assay: transport across Caco-2 cell monolayers; format: in vitro ADME, human; details: for % amount in the basolateral compartment: 10 μg/ml apical, four hours; for Caco-2 assay % basolateral: first series
In short: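 Caco-2 monolayers grown three weeks on 0.4 μm polycarbonate filters; compounds applied apically at 10 μg/ml in HBSS/30 mM HEPES pH 7.2 for 4 h. Apical and basolateral samples quantified by scintillation counting, integrity checked by TEER; triplicate experiments.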

Plasmin [2] = target: T2, Plasmin (Homo sapiens, UniProt P00747); assay: In vitro inhibition of plasmin (Ki according to Dixon); format: biochemical
T2 sequence (P00747 581-810 limits assumed, species assumed): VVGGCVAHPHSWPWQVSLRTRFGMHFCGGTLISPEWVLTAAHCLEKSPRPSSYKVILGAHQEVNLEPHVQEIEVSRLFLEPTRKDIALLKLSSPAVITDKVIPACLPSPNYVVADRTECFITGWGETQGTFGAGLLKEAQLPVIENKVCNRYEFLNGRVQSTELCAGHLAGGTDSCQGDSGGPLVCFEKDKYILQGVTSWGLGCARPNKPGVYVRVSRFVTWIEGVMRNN
T2 sequence (P00747 97-580 partner limits assumed, species assumed): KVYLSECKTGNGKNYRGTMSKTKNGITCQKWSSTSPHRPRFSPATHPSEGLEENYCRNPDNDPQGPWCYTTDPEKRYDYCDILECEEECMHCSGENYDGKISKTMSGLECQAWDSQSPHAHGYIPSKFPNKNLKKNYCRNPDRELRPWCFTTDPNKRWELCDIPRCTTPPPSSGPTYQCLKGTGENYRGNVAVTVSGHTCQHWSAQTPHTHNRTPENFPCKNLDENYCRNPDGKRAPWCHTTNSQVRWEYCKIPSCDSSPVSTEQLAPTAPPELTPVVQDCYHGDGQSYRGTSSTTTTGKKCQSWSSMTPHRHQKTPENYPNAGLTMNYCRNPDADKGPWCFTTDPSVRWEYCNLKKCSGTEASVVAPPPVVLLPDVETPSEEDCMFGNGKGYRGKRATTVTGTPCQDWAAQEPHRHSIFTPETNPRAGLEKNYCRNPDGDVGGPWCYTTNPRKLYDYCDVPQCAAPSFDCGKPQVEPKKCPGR
In short: as §2

Thrombin [3] = target: T3, Thrombin (Homo sapiens, UniProt P00734); assay: In vitro inhibition of thrombin (Ki according to Dixon); format: biochemical
In short: as §2

Plasmin [4] = target: T2, Plasmin; assay: In vitro inhibition of plasmin by WX-508 (Example 15); format: biochemical
Procedure: as §1

Thrombin [5] = target: T3, Thrombin; assay: In vitro inhibition of thrombin by WX-508 (Example 15); format: biochemical
Procedure: as §1

urokinase (uPA) = target: T4, urokinase (uPA) (Homo sapiens, UniProt P00749); assay: In vitro inhibition of urokinase (Ki according to Dixon, chromogenic substrate); format: biochemical
T4 construct: purchased Calbiochem-Novabiochem GmbH, Bad Soden, Germany
In short: as §2

[6] = 30 mg/kg, 30 mg/kg oral, read-out: c in the serum 1st analysis
[7] = 30 mg/kg, 30 mg/kg oral, read-out: c in the serum 2nd analysis
[8] = 300 mg/kg, 300 mg/kg oral, read-out: c in the serum 1st analysis
[9] = 300 mg/kg, 300 mg/kg oral, read-out: c in the serum 2nd analysis

- concentration at 20 min [1, 6]: 300 ng/mL
- concentration at 20 min [1, 7]: 300 ng/mL
- concentration at 40 min [1, 6]: 5700 ng/mL
- concentration at 40 min [1, 7]: 4500 ng/mL
- concentration at 60 min [1, 6]: 80 ng/mL
- concentration at 60 min [1, 7]: 90 ng/mL
- concentration at 20 min [1, 8]: 3500 ng/mL
- concentration at 40 min [1, 8]: 7500 ng/mL
- concentration at 40 min [1, 9]: 8300 ng/mL
- concentration at 60 min [1, 8]: 5400 ng/mL
- concentration at 60 min [1, 9]: 5800 ng/mL
- c in the serum 1st analysis ([1]; time of sample collection 0): 41.1 µg/mL
- c in the serum 2nd analysis ([1]; time of sample collection 0): 55.5 µg/mL
- c in the serum 1st analysis ([1]; time of sample collection 10): 4.3 µg/mL
- c in the serum 2nd analysis ([1]; time of sample collection 10): 4.7 µg/mL
- c in the serum 1st analysis ([1]; time of sample collection 30): 0.7 µg/mL
- c in the serum 2nd analysis ([1]; time of sample collection 30): 0.2 µg/mL
- Ki (urokinase): 0.04 µM
- Ki (PK): 180 µM
- % amount in the basolateral compartment (Caco-2 cell monolayers; first value column): 0.2%
- % amount in the basolateral compartment (Caco-2 cell monolayers; second value column): 0.1%
- % amount in the basolateral compartment (Caco-2 cell monolayers; third value column): 0.7%
- Caco-2 assay % basolateral (Caco-2 cell monolayers; first value): 0.2%
- Caco-2 assay % basolateral (Caco-2 cell monolayers; second value): 0.1%
- Caco-2 assay % basolateral (Caco-2 cell monolayers; third value): 0.7%
- Ki (Plasmin [2]): > 200 µM
- Ki (Plasmin [2]; summary table): > 200 µM
- Ki (Thrombin [3]): > 350 µM
- Ki (Thrombin [3]; summary table): > 350 µM
- Ki (Plasmin [4]): > 1000 µM
- Ki (Thrombin [5]): > 1000 µM
- Ki (urokinase (uPA); list of test substances of Example 17, read-out: Ki human uPA): 0.034 µM
- Ki (urokinase (uPA); read-out: Ki uPA): 0.034 µM
- Ki (urokinase (uPA); summary table, read-out: Ki uPA): 0.034 µM
Compound: N=C(N)Nc1ccc(CNC(=O)CNC(=O)[C@@H](CO)NS(=O)(=O)Cc2ccccc2)cc1 [WX-508, benzylsulfonyl-(D)-Ser-Gly-(4-guanidinobenzyl)amide hydrochloride]

Reference: US20040266766A1, “Selective urokinase inhibitors” (Wilex AG, priority 2001, published 2004)
